Measured values from ChEMBL document CHEMBL5131469, “Design, synthesis and biological evaluation of novel procaine derivatives for intravenous anesthesia” (Bioorg Med Chem Lett, 2022).
Active and inactive are the calls of the source. The calls are words filed in the database; no cut-off is given here.

Legend:
[1] = Therapeutic index, ratio of LD50 for toxicity in mouse to ED50 for anesthetic activity in mouse; type: organism-based; settings: in vivo, read-out: Ratio LD50/ED50
Mus musculus [2] = experiment: Anesthetic activity in mouse assessed as loss of righting […] administered as single injection via caudal vein; type: functional; settings: route iv
[3] = Solubility of the compound at pH 2; type: physicochemical; settings: buffer
[4] = Toxicity in mouse administered as single injection via caudal vein; settings: in vivo, route iv
[5] = Lipophilicity, log D of the compound; type: physicochemical; settings: octanol/water
[6] = molecular target: Voltage-gated inwardly rectifying potassium channel KCNH2 (Homo sapiens, UniProt Q12809); experiment: Inhibition of human ERG
Sequence of Voltage-gated inwardly rectifying potassium channel KCNH2 (Q12809 whole entry): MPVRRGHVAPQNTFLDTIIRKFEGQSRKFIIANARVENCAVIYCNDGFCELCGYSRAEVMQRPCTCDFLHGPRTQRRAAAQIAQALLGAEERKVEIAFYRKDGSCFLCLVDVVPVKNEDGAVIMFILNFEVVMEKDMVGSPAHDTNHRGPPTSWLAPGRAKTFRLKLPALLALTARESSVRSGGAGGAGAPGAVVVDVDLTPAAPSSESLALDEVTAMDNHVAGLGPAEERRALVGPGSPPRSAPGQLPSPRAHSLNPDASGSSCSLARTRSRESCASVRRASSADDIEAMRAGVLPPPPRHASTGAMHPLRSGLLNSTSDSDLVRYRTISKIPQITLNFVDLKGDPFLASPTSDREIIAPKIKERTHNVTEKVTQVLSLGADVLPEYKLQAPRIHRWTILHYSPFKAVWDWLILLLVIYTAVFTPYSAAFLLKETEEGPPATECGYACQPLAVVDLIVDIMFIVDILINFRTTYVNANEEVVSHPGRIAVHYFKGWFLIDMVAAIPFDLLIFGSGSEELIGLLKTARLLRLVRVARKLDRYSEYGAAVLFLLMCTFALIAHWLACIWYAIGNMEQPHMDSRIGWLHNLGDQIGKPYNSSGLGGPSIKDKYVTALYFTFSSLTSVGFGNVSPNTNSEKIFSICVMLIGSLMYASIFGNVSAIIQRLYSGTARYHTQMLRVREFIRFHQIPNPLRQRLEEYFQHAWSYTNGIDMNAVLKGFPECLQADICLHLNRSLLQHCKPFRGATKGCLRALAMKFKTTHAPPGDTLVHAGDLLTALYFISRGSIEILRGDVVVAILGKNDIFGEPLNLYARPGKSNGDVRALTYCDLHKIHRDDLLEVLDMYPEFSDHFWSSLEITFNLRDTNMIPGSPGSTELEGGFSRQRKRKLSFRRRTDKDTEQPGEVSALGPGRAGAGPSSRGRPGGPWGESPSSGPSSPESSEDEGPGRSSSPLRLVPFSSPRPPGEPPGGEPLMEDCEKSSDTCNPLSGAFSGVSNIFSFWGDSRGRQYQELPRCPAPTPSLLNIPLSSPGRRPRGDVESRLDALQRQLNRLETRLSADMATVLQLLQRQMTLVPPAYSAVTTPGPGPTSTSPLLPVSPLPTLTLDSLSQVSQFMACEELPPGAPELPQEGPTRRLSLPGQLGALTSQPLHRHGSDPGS

[7] = Nephrotoxicity in iv dosed rat assessed as morphological change in kidney administered continuously; type: toxicity, organism-based; settings: in vivo
[8] = Nephrotoxicity in iv dosed rat assessed as change in creatinine level administered continuously; type: toxicity, organism-based; settings: in vivo
[9] = Cardiotoxicity in iv dosed rat assessed as change in LDH level administered continuously; type: toxicity, organism-based; settings: in vivo
[10] = Hepatotoxicity in iv dosed rat assessed as morphological change in liver administered continuously; type: toxicity, organism-based; settings: in vivo
[11] = Nephrotoxicity in iv dosed rat assessed as change in urea level administered continuously; type: toxicity, organism-based; settings: in vivo
[12] = Toxicity in iv dosed rat administered continuously; type: organism-based; settings: in vivo
[13] = Toxicity in iv dosed rat assessed as body weight loss administered continuously as infusion for 2 weeks; type: organism-based; settings: in vivo, 336 h
[14] = Stability in plasma (unknown origin); type: ADME, cell-free; settings: unidentified
[15] = Therapeutic index, ratio of LD50 for toxicity in iv dosed rat to ED50 for anesthetic activity in iv dosed rat; type: organism-based; settings: in vivo, read-out: Ratio LD50/ED50
Mus musculus [16] = experiment: Anesthetic activity in mouse assessed as reduction in recovery time of righting reflex at 1.5 times ED50, iv; type: functional, organism-based
HEK293 = experiment: Reversible inhibition of human NR2B receptor expressed in HEK293 cells assessed as inhibition of L-glutamate-induced open-phase current at 500 uM in presence of glycine by whole-cell patch-clamp method relative to control; type: cell-based
[17] = Cardiotoxicity in iv dosed rat assessed as morphological change in heart administered continuously; type: toxicity, organism-based; settings: in vivo
[18] = Cardiotoxicity in iv dosed rat assessed as change in CK-MB level administered continuously; type: toxicity, organism-based; settings: in vivo
Rattus norvegicus = experiment: Anesthetic activity in iv dosed rat assessed as loss of righting […] administered continuously; type: functional
[19] = Hepatotoxicity in iv dosed rat assessed as change in ALT level administered continuously; type: toxicity, organism-based; settings: in vivo
[20] = Toxicity in mouse assessed as adverse effect at 1.5 times ED50, iv; settings: in vivo
[21] = Stability in human liver microsomes measured within 60 mins; type: ADME, Microsome; settings: 1 h
[22] = Cardiotoxicity in iv dosed rat assessed as change in alpha-HBDH level administered continuously; type: toxicity, organism-based; settings: in vivo
[23] = Hepatotoxicity in iv dosed rat assessed as change in AST level administered continuously; type: toxicity, organism-based; settings: in vivo
[24] = Toxicity in iv dosed rat assessed as muscular rigidity administered continuously; type: organism-based; settings: in vivo
[25] = Toxicity in iv dosed rat assessed as cyanosis administered continuously; type: organism-based; settings: in vivo
[26] = Toxicity in iv dosed rat assessed as irregular respiratory rhythm administered continuously; type: organism-based; settings: in vivo
[27] = Toxicity in iv dosed rat assessed as muscle fibrillation administered continuously; type: organism-based; settings: in vivo
[28] = Toxicity in iv dosed rat assessed as convulsion administered continuously; type: organism-based; settings: in vivo
[29] = Toxicity in mouse assessed as angular tension at 1.5 times ED50, iv; settings: in vivo
[30] = Toxicity in mouse assessed as ankylosis at 1.5 times ED50, iv; settings: in vivo
[31] = Toxicity in mouse assessed as convulsion at 1.5 times ED50, iv; settings: in vivo
[32] = Toxicity in mouse assessed as severe respiratory suppression at 1.5 times ED50, iv; settings: in vivo
[33] = Toxicity in mouse assessed as muscular rigidity at 1.5 times ED50, iv; settings: in vivo

Structure (SMILES)	selectivity ratio [1]	ED50 (Mus musculus [2])	LD50 [4]	logD [5]	also measured
Nc1ccc(C(=O)OCCN2CC[S+]([O-])CC2)cc1	2.57	42.7 mg/kg	110 mg/kg	1.55	solubility [3]: Insoluble
CC1CN(CCOC(=O)c2ccc(N)cc2)CC(C)O1 (stereo unspecified)	2.68	59.3 mg/kg	159 mg/kg	1.24	IC50 [6]: > 30 µM; Activity [7]: Non-Toxic; Activity [8]: Non-Toxic; Activity [9]: Non-Toxic; Activity [10]: Non-Toxic; Activity [11]: Non-Toxic; LD50 [12]: 180 mg/kg; Activity [13]: Non-Toxic; Stability [14]: Unstable; selectivity ratio [15]: 2.73; Activity (Mus musculus [16]): Active; inhibition (HEK293): > 80%; Activity [17]: Non-Toxic; Activity [18]: Non-Toxic; ED50 (Rattus norvegicus): 66 mg/kg; Activity [19]: Non-Toxic; Activity [20]: Toxic; Stability [21]: Stable; Activity [22]: Non-Toxic; Activity [23]: Non-Toxic
CC(C)(C)N1CCN(CCOC(=O)c2ccc(N)cc2)CC1	1.86	42.2 mg/kg	78.4 mg/kg	1.15	
Nc1ccc(C(=O)OCCN2CCOCC2)cc1	2.46	148 mg/kg	365 mg/kg	0.54	
CC1COCCN1CCOC(=O)c1ccc(N)cc1 (stereo unspecified)	2.13	119 mg/kg	253 mg/kg	0.62	
CC(C)N1CCN(CCOC(=O)c2ccc(N)cc2)CC1	< 1.5	52.8 mg/kg	58.6 mg/kg	0.92	
COCCN(CCOC)CCOC(=O)c1ccc(N)cc1	1.89	55.2 mg/kg	104 mg/kg	0.83	
Nc1ccc(C(=O)OCCN(CCO)CCO)cc1	< 1.5	128 mg/kg	160 mg/kg	-0.19	
Nc1ccc(C(=O)OCCN2CCS(=O)(=O)CC2)cc1	2.53	45.5 mg/kg	115 mg/kg	1.63	solubility [3]: Insoluble
CCN(CC)CCOC(=O)c1ccc(N)cc1 [PROCAINE]	1.65	42.8 mg/kg	70.5 mg/kg	1.07	Activity [24]: Toxic; Activity [7]: Non-Toxic; Activity [25]: Toxic; Activity [8]: Non-Toxic; Activity [9]: Non-Toxic; Activity [10]: Non-Toxic; Activity [11]: Non-Toxic; LD50 [12]: 78.8 mg/kg; Activity [13]: Non-Toxic; selectivity ratio [15]: 1.56; Activity [26]: Toxic; Activity [17]: Non-Toxic; Activity [18]: Non-Toxic; Activity [27]: Toxic; ED50 (Rattus norvegicus): 50.4 mg/kg; Activity [19]: Non-Toxic; Activity [20]: Toxic; Activity [28]: Toxic; Activity [22]: Non-Toxic; Activity [23]: Non-Toxic
CC1COCC(C)N1CCOC(=O)c1ccc(N)cc1 (stereo unspecified)	2.49	160 mg/kg	399 mg/kg	0.42	
CN1CCN(CCOC(=O)c2ccc(N)cc2)CC1	< 1.5	84.2 mg/kg	100 mg/kg	0.43	
CCN1CCN(CCOC(=O)c2ccc(N)cc2)CC1	< 1.5	56 mg/kg	64.3 mg/kg	0.81	
CC1CC(C)CN(CCOC(=O)c2ccc(N)cc2)C1 (stereo unspecified)	2.02	33.9 mg/kg	68.5 mg/kg	3.2	Activity [29]: Toxic; Activity [30]: Toxic; Activity [31]: Toxic; Activity [32]: Toxic
Nc1ccc(C(=O)OCCN2CCSCC2)cc1	2.33	54 mg/kg	126 mg/kg	1.58	solubility [3]: Insoluble
CCN(CCOC)CCOC(=O)c1ccc(N)cc1	1.52	39.6 mg/kg	60.3 mg/kg	0.96	
CC1CN(CCOC(=O)c2ccc(N)cc2)CCO1 (stereo unspecified)	2.08	90.2 mg/kg	188 mg/kg	1	Activity (Mus musculus [16]): Active; Activity [33]: Toxic
CCN(CCO)CCOC(=O)c1ccc(N)cc1	< 1.5	90.2 mg/kg	115 mg/kg	0.47	
